Assay results taken from PMC3156385 (Chemical research in toxicology, 2011).
Where two headings read alike, the source gives them in different places.

Key:
P450 2A13 [1] = molecular target: T1, P450 2A13 (Homo sapiens, UniProt Q16696); experiment: Inhibition of P450 2A13-dependent coumarin 7-hydroxylation; type: biochemical
T1 sequence (Q16696 1-494): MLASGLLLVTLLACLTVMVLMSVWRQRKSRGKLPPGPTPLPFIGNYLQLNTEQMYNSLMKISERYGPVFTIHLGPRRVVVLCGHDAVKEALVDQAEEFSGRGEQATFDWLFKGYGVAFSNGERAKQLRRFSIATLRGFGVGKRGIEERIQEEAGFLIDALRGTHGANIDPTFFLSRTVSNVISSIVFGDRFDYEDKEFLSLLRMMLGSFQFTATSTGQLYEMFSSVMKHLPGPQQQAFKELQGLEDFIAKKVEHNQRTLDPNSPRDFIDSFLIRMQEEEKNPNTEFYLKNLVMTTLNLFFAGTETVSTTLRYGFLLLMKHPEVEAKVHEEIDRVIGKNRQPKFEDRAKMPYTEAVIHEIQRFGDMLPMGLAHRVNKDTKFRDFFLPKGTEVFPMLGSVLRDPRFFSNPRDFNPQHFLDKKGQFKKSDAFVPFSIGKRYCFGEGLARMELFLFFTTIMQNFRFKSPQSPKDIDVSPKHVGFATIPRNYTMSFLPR

P450 2A6 [2] = molecular target: T2, P450 2A6 (Homo sapiens, UniProt P11509); experiment: Inhibition of P450 2A6-dependent coumarin 7-hydroxylation; type: biochemical
T2 sequence (P11509 1-494): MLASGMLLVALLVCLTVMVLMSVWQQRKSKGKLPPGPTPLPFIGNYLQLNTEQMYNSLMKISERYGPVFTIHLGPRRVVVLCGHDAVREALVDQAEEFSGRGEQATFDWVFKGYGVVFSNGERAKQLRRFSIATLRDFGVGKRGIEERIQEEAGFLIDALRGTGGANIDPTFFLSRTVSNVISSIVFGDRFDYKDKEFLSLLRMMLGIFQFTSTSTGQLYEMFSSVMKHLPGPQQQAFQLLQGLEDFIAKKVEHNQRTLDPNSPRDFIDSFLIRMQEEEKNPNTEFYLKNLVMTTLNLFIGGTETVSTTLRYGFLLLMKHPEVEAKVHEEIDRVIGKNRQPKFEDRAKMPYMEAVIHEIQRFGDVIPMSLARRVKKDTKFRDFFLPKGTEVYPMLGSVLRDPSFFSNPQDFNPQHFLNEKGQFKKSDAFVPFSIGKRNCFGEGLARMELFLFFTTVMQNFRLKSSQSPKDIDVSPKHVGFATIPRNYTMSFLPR

P450 2A6 [3] = molecular target: T2, P450 2A6; type: biochemical
P450 1A2 = molecular target: T3, P450 1A2 (Homo sapiens, UniProt P05177); experiment: Spectral binding titration with purified recombinant P450 1A2; conditions: for ΔAmax/Ks / ΔAmax: Reverse Type I binding, 1 µM P450; for ΔAmax: means ± SE
T3 sequence (P05177 1-516): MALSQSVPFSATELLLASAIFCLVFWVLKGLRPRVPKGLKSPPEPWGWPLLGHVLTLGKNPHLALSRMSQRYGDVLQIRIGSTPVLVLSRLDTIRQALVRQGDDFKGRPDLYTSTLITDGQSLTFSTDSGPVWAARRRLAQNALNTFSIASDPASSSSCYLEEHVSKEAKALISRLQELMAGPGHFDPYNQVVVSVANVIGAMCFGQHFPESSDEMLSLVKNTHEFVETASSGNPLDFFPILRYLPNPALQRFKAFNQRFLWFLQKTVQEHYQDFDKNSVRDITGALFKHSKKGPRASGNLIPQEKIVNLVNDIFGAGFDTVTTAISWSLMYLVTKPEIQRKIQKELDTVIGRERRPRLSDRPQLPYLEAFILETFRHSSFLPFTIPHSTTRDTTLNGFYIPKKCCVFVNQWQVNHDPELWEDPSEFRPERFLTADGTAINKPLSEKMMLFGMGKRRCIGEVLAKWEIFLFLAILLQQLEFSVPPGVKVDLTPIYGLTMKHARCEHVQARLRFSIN

P450 1A1 = molecular target: T4, P450 1A1 (Homo sapiens, UniProt P04798); experiment: Spectral binding titration with purified recombinant P450 1A1; conditions: for ΔAmax/Ks / ΔAmax: Reverse Type I binding, 1 µM P450; for ΔAmax: means ± SE
T4 sequence (P04798 1-512): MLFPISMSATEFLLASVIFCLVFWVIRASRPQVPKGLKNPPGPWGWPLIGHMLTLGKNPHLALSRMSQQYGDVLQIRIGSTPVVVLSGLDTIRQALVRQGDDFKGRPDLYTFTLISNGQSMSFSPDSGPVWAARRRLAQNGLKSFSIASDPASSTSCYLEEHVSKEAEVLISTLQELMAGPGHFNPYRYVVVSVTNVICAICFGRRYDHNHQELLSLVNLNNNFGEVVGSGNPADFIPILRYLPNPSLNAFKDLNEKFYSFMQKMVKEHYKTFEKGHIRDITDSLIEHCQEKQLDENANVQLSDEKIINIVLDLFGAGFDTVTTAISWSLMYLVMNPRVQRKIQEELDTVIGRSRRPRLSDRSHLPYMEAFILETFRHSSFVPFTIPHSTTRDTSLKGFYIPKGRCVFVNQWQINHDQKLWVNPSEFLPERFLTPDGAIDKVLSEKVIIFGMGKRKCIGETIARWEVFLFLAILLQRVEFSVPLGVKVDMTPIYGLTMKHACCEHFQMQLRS

P450 2A13 [4] = molecular target: T1, P450 2A13; type: biochemical
P450 2A6 [5] = molecular target: T2, P450 2A6; experiment: Spectral binding titration with purified recombinant P450 2A6; conditions: for ΔAmax/Ks / ΔAmax: Type I binding, 1 µM P450; for ΔAmax: means ± SE
[6] = preincubation 15 min with NADPH vs without

Structure (SMILES) | IC50 (P450 2A13 [1]) | IC50 (P450 2A6 [2]) | Kd (P450 1A2) | ΔAmax/Ks (P450 1A2) | ΔAmax (P450 1A2) | Kd (P450 1A1) | ΔAmax/Ks (P450 1A1) | ΔAmax (P450 1A1) | Kd (P450 2A6 [5]) | ΔAmax/Ks (P450 2A6 [5]) | ΔAmax (P450 2A6 [5]) | also measured
N#C[Se]Cc1ccccc1 [BSC, benzyl selenocyanate] | 1.2 ± 0.19 µM | 4.3 ± 0.36 µM | 11 ± 2.3 µM | 0.88 × 10^−3 | 9.5 ± 0.57 × 10^−3 | 23 ± 4.1 µM | 0.61 × 10^−3 | 14 ± 1.0 × 10^−3 | 2 ± 0.14 µM | 32.00 × 10^−3 | 66 ± 0.93 × 10^−3 | effect of preincubation on inhibition potency of coumarin 7-hydroxylation (P450 2A6 [3]): did not change the inhibition potencies; type of binding spectra (P450 1A1; difference spectra): Reverse Type I; effect of preincubation on inhibition potency of coumarin 7-hydroxylation (P450 2A13 [4]): did not change the inhibition potencies; type of binding spectra (P450 2A6 [5]; difference spectra): Type I
N#C[Se]Cc1cccc(C[Se]C#N)c1 [m-XSC, 1,3-phenylenebis(methylene)selenocyanate] | 0.22 ± 0.031 µM | 2.4 ± 0.19 µM | 13 ± 1.9 µM | 0.46 × 10^−3 | 5.8 ± 0.25 × 10^−3 | 30 ± 4.5 µM | 0.60 × 10^−3 | 18 ± 1.2 × 10^−3 | 5.7 ± 0.52 µM | 6.50 × 10^−3 | 37 ± 0.88 × 10^−3 | effect of preincubation on inhibition potency of coumarin 7-hydroxylation (P450 2A6 [3]; [6]): did not change the inhibition potencies; coumarin 7-hydroxylation, % of control (P450 2A6 [3]; with preincubation 15 min with NADPH, 1.0 µM coumarin, BSC 4.3 µM, m-XSC 0.68 µM): 48 % of control; coumarin 7-hydroxylation, % of control (P450 2A6 [3]; without preincubation, 1.0 µM coumarin, BSC 4.3 µM, m-XSC 0.68 µM): 48 % of control; coumarin 7-hydroxylation (P450 2A6 [3]; without preincubation, 1.0 µM coumarin, BSC 4.3 µM, m-XSC 0.68 µM, control 3.26): 1.56 nmol/min/nmol P450; effect of preincubation on inhibition potency of coumarin 7-hydroxylation (P450 2A13 [4]; [6]): did not change the inhibition potencies; coumarin 7-hydroxylation, % of control (P450 2A13 [4]; with preincubation 15 min with NADPH, 1.0 µM coumarin, BSC 1.2 µM, m-XSC 0.22 µM): 54 % of control; coumarin 7-hydroxylation, % of control (P450 2A13 [4]; without preincubation, 1.0 µM coumarin, BSC 1.2 µM, m-XSC 0.22 µM): 56 % of control; coumarin 7-hydroxylation (P450 2A13 [4]; without preincubation, 1.0 µM coumarin, BSC 1.2 µM, m-XSC 0.22 µM, control 1.04): 0.59 nmol/min/nmol P450
